According to patent US6410530B1, “Substituted 1,2,3,4-tetrahydronaphthalene derivatives” (AstraZeneca AB, priority 1996, dated 2002):

| melting point | Structure (SMILES) |
| --- | --- |
| 199 to 200 °C | CN1CCN(c2cccc3c2C[C@H](NC(=O)c2ccc(OS(C)(=O)=O)cc2)CC3)CC1 [Example 67, (R)-N-[8-(4-Methylpiperazin-1-yl)-1,2,3,4-tetrahydro-2-naphthyl]-4-methylsulfonyloxybenzamide] |
| 177 to 178 °C | CCc1ccc(C(=O)N[C@@H]2CCc3cccc(N4CCN(C)CC4)c3C2)cc1 [Example 69, (R)-N-[8-(4-Methylpiperazin-1-yl)-1,2,3,4-tetrahydro-2-naphthyl]-4-ethylbenzamide] |
| 189 to 190 °C | CN1CCN(c2cccc3c2C[C@H](NC(=O)c2ccc(F)cc2)CC3)CC1 [Example 72, (R)-N-[8-(4-Methylpiperazin-1-yl)-1,2,3,4-tetrahydro-2-naphthyl]-4-fluorobenzamide] |
| 200 to 201 °C | CN1CCN(c2cccc3c2C[C@H](NC(=O)c2ccc(Br)cc2)CC3)CC1 [Example 73, (R)-N-[8-(4-Methylpiperazin-1-yl)-1,2,3,4-tetrahydro-2-naphthyl]-4-bromobenzamide] |
| 204 to 205 °C | CN1CCN(c2cccc3c2C[C@H](NC(=O)c2ccc(Cl)cc2)CC3)CC1 [Example 74, (R)-N-[8-(4-Methylpiperazin-1-yl)-1,2,3,4-tetrahydro-2-naphthyl]-4-chlorobenzamide] |
| 191 to 192 °C | CN1CCN(c2cccc3c2C[C@H](NC(=O)c2ccc(Cc4ccccc4)cc2)CC3)CC1 [Example 75, (R)-N-[8-(4-Methylpiperazin-1-yl)-1,2,3,4-tetrahydro-2-naphthyl]-4-benzylbenzamide] |
| 194 to 195 °C | CN1CCN(c2cccc3c2C[C@H](NC(=O)c2ccc(C(=O)c4ccccc4)cc2)CC3)CC1 [Example 76, (R)-N-[8-(4-Methylpiperazin-1-yl)-1,2,3,4-tetrahydro-2-naphthyl]-4-benzoylbenzamide] |
| 245 to 247 °C | CN1CCN(c2cccc3c2C[C@H](NC(=O)c2ccc(-n4cccc4)cc2)CC3)CC1 [Example 78, (R)-N-[8-(4-Methylpiperazin-1-yl)-1,2,3,4-tetrahydro-2-naphthyl]-4-(1H-pyrrol-1-yl)benzamide] |
| 151 to 152 °C | CN1CCN(c2cccc3c2C[C@H](NC(=O)Cc2ccccc2)CC3)CC1 [Example 80, (R)-N-[8-(4-Methylpiperazin-1-yl)-1,2,3,4-tetrahydro-2-naphthyl]phenylacetamide] |
| 137 to 139 °C | CN1CCN(c2cccc3c2C[C@H](NC(=O)CCCc2ccccc2)CC3)CC1 [Example 82, (R)-N-[8-(4-Methylpiperazin-1-yl)-1,2,3,4-tetrahydro-2-naphthyl]-4-phenylbutanamide] |
| 234 to 235 °C | CCc1ccc(-c2ccc(C(=O)N[C@@H]3CCc4cccc(N5CCN(C)CC5)c4C3)cc2)cc1 [Example 84, (R)-N-[8-(4-Methylpiperazin-1-yl)-1,2,3,4-tetrahydro-2-naphthyl]-4-(4-ethylphenyl)benzamide] |
| 261 to 262 °C | CN1CCN(c2cccc3c2C[C@H](NC(=O)c2ccc(-c4ccc(O)cc4)cc2)CC3)CC1 [Example 85, (R)-N-[8-(4-Methylpiperazin-1-yl)-1,2,3,4-tetrahydro-2-naphthyl]-4-(4-hydroxyphenyl)benzamide] |
| 136 to 137 °C | CN1CCN(c2cccc3c2C[C@H](NC(=O)c2cccc(Oc4ccccc4)c2)CC3)CC1 [Example 87, (R)-N-[8-(4-Methylpiperazin-1-yl)-1,2,3,4-tetrahydro-2-naphthyl]-3-phenoxybenzamide] |
| 117 °C (dec.) | CN1CCN(c2cccc3c2C[C@H](NC(=O)c2cccc(O)c2)CC3)CC1 [Example 88, (R)-N-[8-(4-Methylpiperazin-1-yl)-1,2,3,4-tetrahydro-2-naphthyl]-3-hydroxybenzamide] |
| 179 to 180 °C | Cc1ccccc1C(=O)N[C@@H]1CCc2cccc(N3CCN(C)CC3)c2C1 [Example 90, (R)-N-[8-(4-Methylpiperazin-1-yl)-1,2,3,4-tetrahydro-2-naphthyl]-2-methylbenzamide] |
| 87 °C (dec.) | CN1CCN(c2cccc3c2C[C@H](NC(=O)c2ccccc2O)CC3)CC1 [Example 92, (R)-N-[8-(4-Methylpiperazin-1-yl)-1,2,3,4-tetrahydro-2-naphthyl]-2-hydroxybenzamide] |

The remaining lines, values behind:

| Structure (SMILES) | melting point |
| --- | --- |
| CC(=O)N[C@@H]1CCc2cccc(N3CCN(C)CC3)c2C1 | 152 to 154 °C |
| CCN1CCN(c2cccc3c2C[C@H](NC(C)=O)CC3)CC1 | 142 to 143 °C |
| CN1CCN(c2cccc3c2C[C@H](NC(=O)C(F)(F)F)CC3)CC1 | 158 to 159 °C |
| CN1CCN(c2cccc3c2C[C@H](NS(C)(=O)=O)CC3)CC1 | 135 to 137 °C |
| CCCC(=O)N[C@@H]1CCc2cccc(N3CCN(C)CC3)c2C1 | 131 to 132 °C |
| CCCN1CCN(c2cccc3c2C[C@H](NC(C)=O)CC3)CC1 [Example 24, (R)-N-[8-(4-Propylpiperazin-1-yl)-1,2,3,4-tetrahydro-2-naphthyl]acetamide] | 139 to 140 °C |
| CCCCN1CCN(c2cccc3c2C[C@H](NC(C)=O)CC3)CC1 [Example 27, (R)-N-[8-(4-Butylpiperazin-1-yl)-1,2,3,4-tetrahydro-2-naphthyl]acetamide] | 118 to 120 °C |
| CCCCCN1CCN(c2cccc3c2C[C@H](NC(C)=O)CC3)CC1 [Example 30, (R)-N-[8-(4-Pentylpiperazin-1-yl)-1,2,3,4-tetrahydro-2-naphthyl]acetamide] | 119 to 120 °C |
| CCCCCCN1CCN(c2cccc3c2C[C@H](NC(C)=O)CC3)CC1 [Example 33, (R)-N-[8-(4-Hexylpiperazin-1-yl)-1,2,3,4-tetrahydro-2-naphthyl]acetamide] | 117 to 118 °C |
| CN1CCN(c2cccc3c2C[C@H](NC(=O)C2CCCCC2)CC3)CC1 [Example 36, (R)-N-[8-(4-Methylpiperazin-1-yl)-1,2,3,4-tetrahydro-2-naphthyl]cyclohexanecarboxamide] | 183 to 184 °C |
| CN1CCN(c2cccc3c2C[C@H](NC(=O)c2ccc(-c4ccccc4)cc2)CC3)CC1 [Example 44, (R)-N-[8-(4-Methylpiperazin-1-yl)-1,2,3,4-tetrahydro-2-naphthyl]-1,1′-biphenyl-4-carboxamide] | 232 to 233 °C |
| CN1CCN(c2cccc3c2C[C@H](NC(=O)c2csc(-c4ccccc4)n2)CC3)CC1 [Example 46, (R)-N-[8-(4-Methylpiperazin-1-yl)-1,2,3,4-tetrahydro-2-naphthyl]-2-phenylthiazole-4-carboxamide] | 175 to 176 °C |
| CN1CCN(c2cccc3c2C[C@H](NC(=O)c2csc(-c4ccncc4)n2)CC3)CC1 [Example 47, (R)-N-[8-(4-Methylpiperazin-1-yl)-1,2,3,4-tetrahydro-2-naphthyl]-2-(4-pyridyl)thiazole-4-carboxamide] | 187 to 188 °C |
| CN1CCN(c2cccc3c2C[C@H](NC(=O)c2ccccc2)CC3)CC1 [Example 48, (R)-N-[8-(4-Methylpiperazin-1-yl)-1,2,3,4-tetrahydro-2-naphthyl]benzamide] | 195 to 196 °C |
| COc1ccc(C(=O)N[C@@H]2CCc3cccc(N4CCN(C)CC4)c3C2)cc1 [Example 49, (R)-N-[8-(4-Methylpiperazin-1-yl)-1,2,3,4-tetrahydro-2-naphthyl]-4-methoxybenzamide] | 186 to 187 °C |
| CN1CCN(c2cccc3c2C[C@H](NC(=O)c2ccc(C#N)cc2)CC3)CC1 [Example 50, (R)-N-[8-(4-Methylpiperazin-1-yl)-1,2,3,4-tetrahydro-2-naphthyl]-4-cyanobenzamide] | 184 to 186 °C |
| O=C(N[C@@H]1CCc2cccc(N3CCNCC3)c2C1)c1ccc(N2CCOCC2)cc1 [Example 53, (R)-N-[8-(Piperazin-1-yl)-1,2,3,4-tetrahydro-2-naphthyl]-4-morpholinobenzamide] | 202 to 203 °C |
| CN1CCN(c2cccc3c2C[C@H](NC(=O)c2ccc(N4CCOCC4)cc2)CC3)CC1 [Example 54, (R)-N-[8-(4-Methylpiperazin-1-yl)-1,2,3,4-tetrahydro-2-naphthyl]-4-morpholinobenzamide] | 230 to 231 °C |
| CN1CCN(c2cccc3c2C[C@@H](NC(=O)c2ccc(N4CCOCC4)cc2)CC3)CC1 [Example 55, (S)-N-[8-(4-Methylpiperazin-1-yl)-1,2,3,4-tetrahydro-2-naphthyl]-4-morpholinobenzamide] | 228 to 230 °C |
| CCCN1CCN(c2cccc3c2C[C@H](NC(=O)c2ccc(N4CCOCC4)cc2)CC3)CC1 [Example 57, (R)-N-[8-(4-Propylpiperazin-1-yl)-1,2,3,4-tetrahydro-2-naphthyl]-4-morpholinobenzamide] | 183 to 185 °C |
| Cc1cc(C(=O)N[C@@H]2CCc3cccc(N4CCN(C)CC4)c3C2)ccc1N1CCOCC1 [Example 61, (R)-N-[8-(4-Methylpiperazin-1-yl)-1,2,3,4-tetrahydro-2-naphthyl]-3-methyl-4-morpholinobenzamide] | 172 to 175 °C |
| CN1CCN(c2cccc3c2C[C@H](NC(=O)c2ccc(C4CCCCC4)cc2)CC3)CC1 [Example 63, (R)-N-[8-(4-Methylpiperazin-1-yl)-1,2,3,4-tetrahydro-2-naphthyl]-4-cyclohexylbenzamide] | 224 to 226 °C |
| CN1CCN(c2cccc3c2C[C@H](NC(=O)c2ccc(C(F)(F)F)cc2)CC3)CC1 [Example 65, (R)-N-[8-(4-Methylpiperazin-1-yl)-1,2,3,4-tetrahydro-2-naphthyl]-4-trifluoromethylbenzamide] | 203 to 204 °C |
| CN1CCN(c2cccc3c2C[C@@H](NC(=O)c2ccc(C(F)(F)F)cc2)CC3)CC1 [Example 66, (S)-N-[8-(4-Methylpiperazin-1-yl)-1,2,3,4-tetrahydro-2-naphthyl]-4-trifluoromethylbenzamide] | 202 to 204 °C |
| CCCCOc1ccc(C(=O)N[C@@H]2CCc3cccc(N4CCN(C)CC4)c3C2)cc1 [Example 70, (R)-N-[8-(4-Methylpiperazin-1-yl)-1,2,3,4-tetrahydro-2-naphthyl]-4-butoxybenzamide] | 190 to 191 °C |
| CCCCOc1ccc(C(=O)N[C@H]2CCc3cccc(N4CCN(C)CC4)c3C2)cc1 [Example 71, (S)-N-[8-(4-Methylpiperazin-1-yl)-1,2,3,4-tetrahydro-2-naphthyl]-4-butoxybenzamide] | 190 to 192 °C |
